We go through 74 substances from paper PMC4865845, “A human genome-wide loss-of-function screen identifies effective chikungunya antiviral drugs” (Nature Communications, 2016).

The test system of the data set is CHIKV. It is filed as cell-based, chikungunya virus.
On to “Hs_MAP2K2_9 (TTCCAGGAGTTTGTCAATAAA; chemistry not given here)”, for which the Score_si4 is 0.51.
As for “Hs_SREBF2_3 (sense CTGCAATTTGTCAGTAATCAA; chemistry not given here)”, the Score_si1 was 2.21.
In the case of “s9666 (CGTGTACTCTGTTTCGACA; chemistry not given here) [reference compound]”, the Score_si4 is -0.83.
As for “Hs_WIG1_2 (CAGGCTCATTATCAGGGTAAA; chemistry not given here)”, the Score_si4 was -0.33.
Take “s34678 (GAGTTTAAGATGATGCCTA; chemistry not given here)”: the Score_si3 was found to be 0.6.
Consider “Hs_CCDC6_1 (sense ATGGATAATTATCGTATATTA; chemistry not given here) [reference compound]”, for which the Score_si1 is listed as -2.65.
On to “s38817 (GCAAATCTCTCTATCCTTA; chemistry not given here)”, for which the Score_si4 is recorded as 0.06.
Substance “s8542 (AGGTTTTAACGATTTGTTT; chemistry not given here)” returned a Score_si2 of 0.14.
On to “s16459 (GATGGATCCATGTAATACA; chemistry not given here)”, for which the Score_si4 is recorded as 0.81.
For the substance “Hs_CAMKK2_3 (TAGCAGCATGTCCTACGGAAA; chemistry not given here)”, the Score_si4 worked out at 1.01.
In the case of “Hs_XRN1_2 (AAGGAAATAGATAAACTGTAA; chemistry not given here)”, the Score_si1 worked out at 1.94.
“s21552 (sense TCGCTTCTGTATTTATGTT; chemistry not given here)” came in with a Score_si2 of 1.41.
Substance “Hs_ANKRD9_2 (CTCCCAGGAGCTAACGTATAA; chemistry not given here)” displayed a Score_si2 of 2.08.
Consider “s20649 (sense GAATTACGGAGTCAACAAA; chemistry not given here) [reference compound]”, for which the Score_si3 is on record as -1.04.
Same read-out and setting: to “Hs_CSNK1A1_3 (sense AAGAACTTAATTTCAGTATAA; chemistry not given here)” belongs 1.65.
“s16996 (CAACATTGGTGGGAATGCA; chemistry not given here)” displayed a Score_si2 of 1.51.
As to “s20631 (sense GGACGGAAGCGAAAATCGA; chemistry not given here)”, the Score_si3 is listed as 1.89.
As to “Hs_RARSL_6 (sense TAGATCGAATGGACAAGTATA; chemistry not given here) [reference compound]”, the Score_si2 is on record as -1.49.
On to “s5569 (sense AGGCTGAAGCTAATAAGAA; chemistry not given here)”, for which the Score_si3 came out at 0.16.
The substance “s194444 (sense GCTGCGTCTCCCTTCCAAA; chemistry not given here) [reference compound]” showed a Score_si4 of -0.58.
The same measure, in the same setting: to “s195643 (sense CCCTAGGCGCTGGATTTTG; chemistry not given here)” belongs 0.23.
“s8322 (GGTCGGAGATTTGCAAGGA; chemistry not given here)”: the Score_si3 amounted to 1.44.
In the case of “Hs_TOR2A_2 (CACGGGTGGCGAGCAGATCAA; chemistry not given here)”, the Score_si1 is listed as 2.35.
“Hs_ATP6AP2_2 (AAGAGTGTATATGGTAGGGAA; chemistry not given here)” yielded a Score_si4 of 0.62.
In turn, “s38295 (GCAATTCTGACGACAATAT; chemistry not given here)” gave a Score_si3 of 1.57.
Substance “Hs_KIAA0947_2 (sense CTGGCAGTTTATTGCTCTTAA; chemistry not given here)” registered a Score_si1 of 2.71.
“Hs_APEX2_5 (ACGCTGCAGCACAACAATCAA; chemistry not given here) [reference compound]”: the Score_si4 is on record as -0.1.
Still for that read-out and setting: in the case of “Hs_SREBF2_1 (sense ACCCATAATATCATTGAGAAA; chemistry not given here)” it was 1.37.
“Hs_SHC2_11 (sense TCGGTGCTGGTGGAACAGAAA; chemistry not given here)” displayed a Score_si1 of 2.36.
The substance “Hs_FCGRT_2 (AAGGATGTAAATGTGATTCCA; chemistry not given here)” displayed a Score_si2 of 1.36.
Regarding “s15614 (sense GCAAGTCGTGAAACTATAA; chemistry not given here)”, the Score_si4 was found to be 0.64.
Take “s25486 (sense GGTCTACAATCGGATGACA; chemistry not given here)”: the Score_si4 was 1.05.
Substance “Hs_LIP8_2 (sense AAGCATATCTTTGAGATGGAA; chemistry not given here)” registered a Score_si1 of 2.14.
“Hs_FLJ10134_1 (CTGATGTTATATGACTATAAA; chemistry not given here)” had a Score_si1 of 1.71.
As to “Hs_NRCAM_2 (AACGCTCATAATTAACATCAT; chemistry not given here)”, the Score_si4 is reported as 0.35.
As for “s25186 (sense ACTTCTCCGTGATCCTGAA; chemistry not given here)”, the Score_si2 turned out to be 1.53.
“Hs_PDLIM5_3 (AAGAGACGGTTTGGCATTTAT; chemistry not given here)” had a Score_si1 of 1.17.
Consider “Hs_DMAP1_1 (GCGGATGTACGGGACATTCTA; chemistry not given here)”, for which the Score_si1 amounted to 2.23.
Regarding “s38697 (GCAATTTGCTGTTGCCGAA; chemistry not given here)”, the Score_si3 is -0.06.
Substance “Hs_POU3F2_2 (AAGATGAAAGTTACCACTGAA; chemistry not given here)” gave a Score_si1 of 2.65.
On to “Hs_AQP3_3 (CTGGATCAAGCTGCCCATCTA; chemistry not given here)”, for which the Score_si1 worked out at 1.31.
Substance “Hs_GRB10_6 (sense CTAGATGACGGGAACACCAAA; chemistry not given here)” had a Score_si4 of 0.5.
As for “Hs_NRCAM_3 (GACGTTTGGTTTAAAGAATTA; chemistry not given here)”, the Score_si2 turned out to be 0.93.
Regarding “s12384 (sense TCGTCCTCTTTAACCCTGA; chemistry not given here)”, the Score_si3 was found to be 1.24.
In the case of “s26873 (sense CTTCGAGACCGGTTCAAGA; chemistry not given here)”, the Score_si1 came out at 2.15.
“Hs_DLD_2 (CCCACTTATTCAAACAGAATA; chemistry not given here)” yielded a Score_si4 of 0.87.
“Hs_NAG_1 (CAGAGGAAGATTGAAAGTGAA; chemistry not given here)”: the Score_si2 is 2.12.
With “s81 (sense GGATGATTTAGAATTGTCA; chemistry not given here)”, the Score_si3 is 2.08.
Still for that read-out and setting: to “s35400 (ACGCAGAGGCGGGAACAAA; chemistry not given here)” belongs 0.6.
Turning to “s16998 (GAAATTCCATGTCATTGTA; chemistry not given here)”, the Score_si4 is recorded as 0.65.
“Hs_PSD3_1 (sense CTCCATTGTCTTACTAACAAA; chemistry not given here) [reference compound]”: the Score_si1 is -3.63.
“s17802 (GGAGTTAAACATAGATGTA; chemistry not given here)”: the Score_si3 came to 1.28.
In turn, “Hs_GPSN2_1 (sense CTGGATCGGTTTCGCCATCAT; chemistry not given here)” had a Score_si2 of 2.41.
“Hs_GPSN2_2 (sense GTGGATGGCCTATTACATCAA; chemistry not given here)” gave a Score_si1 of 2.86.
For “Hs_CLPP_1 (sense CACGATGCAGTACATCCTCAA; chemistry not given here)”, the Score_si4 worked out at 0.97.
“Hs_ODZ3_2 (CCCAAATTTGATTTAACAGAA; chemistry not given here)”: the Score_si4 was 0.82.
Substance “Hs_GLTSCR2_4 (sense CAAGTTCAAACGCAAGTACAA; chemistry not given here)” registered a Score_si2 of 1.95.
On to “Hs_LOC407835_6 (sense CTGCTGGACTATATTGTGAAA; chemistry not given here)”, for which the Score_si3 turned out to be 0.74.
Consider “Hs_PDLIM5_6 (TCCGATGTGCGCCCATTGTAA; chemistry not given here)”, for which the Score_si3 was found to be 0.87.
Consider “Hs_CDK4_2 (sense CAAGGTAACCCTGGTGTTTGA; chemistry not given here)”, for which the Score_si1 is on record as 1.6.
Same read-out and setting: in the case of “Hs_EP400_1 (CAGAATGATTTGGACATTGAA; chemistry not given here)” it was 2.29; in that of “Hs_POLDIP3_2 (CCGGCTCAAACTGGGAGTCAA; chemistry not given here)”, 2.49.
In turn, “Hs_ATP6AP2_3 (AAGGACTATCCTTGAGGCAAA; chemistry not given here)” showed a Score_si1 of 1.26.
On to “Hs_CNOT3_1 (sense CTCGGACACTGTGGAATTCTA; chemistry not given here)”, for which the Score_si1 is 2.54.
On to “Hs_PPP1R8_8 (AACCCTGAAGCTGTAAATGAA; chemistry not given here)”, for which the Score_si3 was 0.62.
In turn, “Hs_APPL_2 (CAGGAATTTCTACAATAATAA; chemistry not given here) [reference compound]” yielded a Score_si1 of -2.3.
As for “Hs_WDR40A_2 (AACACTGATAATAGGAAGTAA; chemistry not given here) [reference compound]”, the Score_si4 was -0.22.
For “Hs_KAZALD1_1 (sense CCGGAGGAGCTGCTTTCTGAA; chemistry not given here)”, the Score_si2 worked out at 1.12.
Regarding “Hs_EZH2_6 (CAGGATGGTACTTTCATTGAA; chemistry not given here)”, the Score_si1 was determined as 1.77.
Substance “Hs_NRCAM_1 (CAGGCCTTCAGTACAAAGTTA; chemistry not given here)” registered a Score_si3 of 0.75.
Substance “s36692 (GGCTATTGATTGTCCACAT; chemistry not given here) [reference compound]” showed a Score_si4 of -0.43.
Consider “s15687 (sense CCCGTATCATGATCCACCA; chemistry not given here)”, for which the Score_si1 stood at 1.56.
For “Hs_SLC6A19_4 (sense CCAGAAGATCTCCTACCCGAA; chemistry not given here)”, the Score_si2 stood at 0.84.
As to “s3114 (GAAGAGCAGTCACAGATCA; chemistry not given here)”, the Score_si2 is listed as 2.05.
